Results published in patent publication US20110306606A1, “NOVEL 2,6-SUBSTITUTED-3-NITROPYRIDINE DERIVATIVE, METHOD FOR PREPARING SAME, AND PHARMACEUTICAL COMPOSITION INCLUDING SAME” (priority 2008, published 2011).

What follows are molecules tested on Osteoblasts (Calvarial cells) (assay: Cytotoxicity test (MTT)). Settings: 1 μM compound, 72 hours, in comparison with vehicle control.
Description: For the preparation of osteoblasts (Calvarial cells), the calvaria were aseptically dissected from 1 to 2-day-old neonatal ICR mice and subjected to continuous reaction with a 0.2% collagenase solution to separate osteoblasts. The cell-suspended supernatant was centrifuged to recover osteoblasts which were grown to full confluence in an α-MEM supplemented with 10% FBS and then diluted to a desired cell density for use in the experiment.
Cytotoxicity of the compounds of the present invention was evaluated by carrying out the experiment described below.
The vehicle control group was established to contain 0.2% DMSO. 100 μL/well of the diluted drugs were dispensed into 96-well plates to which osteoblasts (calvarial cells) prepared in Experimental Example 1 were then added at a density of 1.0×10^4 cells/100 μL/well. Here, the final compound concentration in the cell culture was 1 μM, and the vehicle control group contained 0.1% DMSO. The cells were cultured in a 5% CO2 inhibitor at 37° for 72 hours. 25 μL of 3-(4,5-dimethyl-2-thiazolyl)-2,5-diphenyl-2H-tetrazolium bromide (MTT) dissolved in PBS (2 mg/mL) was added to each cell culture 4 hours before the end of culture. After completion of the reaction, the plates were centrifuged, the media were discarded, and 100 μL of formazan was added and dissolved in dimethyl sulfoxide (DMSO). Finally, the absorbance of the developed plates was measured at 540 nm. The cell viability was expressed as % concentration in comparison with the vehicle control group.

SMILES | Cell viability (%) Calvarial cell [%]
CC1CCCCN1c1ccc(Nc2nc(NC(C)(C)C)ccc2[N+](=O)[O-])cc1F (stereo not drawn) [Compound 264, 2-{[3-fluoro-4-(2-methylpiperidino)]phenylamino}-6-(t-butylamino)-3-nitropyridine] | 117
CC1CCCCN1c1ccc(Nc2nc(N3CCC(O)CC3)ccc2[N+](=O)[O-])cc1F (stereo not drawn) [Compound 265, 2-{[3-fluoro-4-(2-methylpiperidino)]phenylamino}-6-(4-hydroxypiperidino)-3-nitropyridine] | 104
CC1=NCCN1c1ccc([N+](=O)[O-])c(Nc2ccc(N3CCCCC3C)c(F)c2)n1 (stereo not drawn) [Compound 266] | 121
CC1CCCCN1c1ccc(Nc2nc(N3CCNCC3)ccc2[N+](=O)[O-])cc1F (stereo not drawn) [Compound 267, 2-{[3-fluoro-4-(2-methylpiperidino)]phenylamino}-6-(piperazin-1-yl)-3-nitropyridine] | 107
CC1CCCCN1c1ccc(Nc2nc(N3CCN(C)CC3)ccc2[N+](=O)[O-])cc1F (stereo not drawn) [Compound 268, 2-{[3-fluoro-4-(2-methylpiperidino)]phenylamino}-6-(4-methylpiperazin-1-yl)-3-nitropyridine] | 104
CC1CCCCN1c1ccc(Nc2nc(N3CCOCC3)ccc2[N+](=O)[O-])cc1F (stereo not drawn) [Compound 269, 2-{[3-fluoro-4-(2-methylpiperidino)]phenylamino}-6-morpholino-3-nitropyridine] | 113
CC1CCCCN1c1ccc(Nc2nc(N3CCC(N)CC3)ccc2[N+](=O)[O-])cc1F (stereo not drawn) [Compound 270, 2-{[3-fluoro-4-(2-methylpiperidino)]phenylamino}-6-(4-aminopiperidino)-3-nitropyridine] | 95
CC1CCCCN1c1ccc(Nc2nc(NCc3ccncc3)ccc2[N+](=O)[O-])cc1F (stereo not drawn) [Compound 271, 2-{[3-fluoro-4-(2-methylpiperidino)]phenylamino}-6-[(4-pyridyl)methylamino]-3-nitropyridine] | 107
CC1CCCCN1c1ccc(Nc2nc(NCCCn3ccnc3)ccc2[N+](=O)[O-])cc1F (stereo not drawn) [Compound 272, 2-{[3-fluoro-4-(2-methylpiperidino)]phenylamino}-6-[(3-imidazol-1-yl)propylamino]-3-nitropyridine] | 98
CC1CCCCN1c1ccc(Nc2nc(NCCN3CCOCC3)ccc2[N+](=O)[O-])cc1F (stereo not drawn) [Compound 273, 2-{[3-fluoro-4-(2-methylpiperidino)]phenylamino}-6-[2-(morpholin-1-yl)ethylamino]-3-nitropyridine] | 115
CC1CCCCN1c1ccc(Nc2nc(NCCCN3CCOCC3)ccc2[N+](=O)[O-])cc1F (stereo not drawn) [Compound 274, 2-{[3-fluoro-4-(2-methylpiperidino)]phenylamino}-6-[(3-morpholin-1-yl)propylamino]-3-nitropyridine] | 102
CNc1ccc([N+](=O)[O-])c(Nc2ccc(N3CCCC(CO)C3)c(F)c2)n1 (stereo not drawn) [Compound 275, 2-{[3-fluoro-4-(3-hydroxymethylpiperidino)]phenylamino}-6-(methylamino)-3-nitropyridine] | 121
CC(C)Nc1ccc([N+](=O)[O-])c(Nc2ccc(N3CCCC(CO)C3)c(F)c2)n1 (stereo not drawn) [Compound 276, 2-{[3-fluoro-4-(3-hydroxymethylpiperidino)]phenylamino}-6-(isopropylamino)-3-nitropyridine] | 102
CC(C)CNc1ccc([N+](=O)[O-])c(Nc2ccc(N3CCCC(CO)C3)c(F)c2)n1 (stereo not drawn) [Compound 277, 2-{[3-fluoro-4-(3-hydroxymethylpiperidino)]phenylamino}-6-(isobutylamino)-3-nitropyridine] | 107
CC(C)(C)Nc1ccc([N+](=O)[O-])c(Nc2ccc(N3CCCC(CO)C3)c(F)c2)n1 (stereo not drawn) [Compound 278, 2-{[3-fluoro-4-(3-hydroxymethylpiperidino)]phenylamino}-6-(t-butylamino)-3-nitropyridine] | 118
O=[N+]([O-])c1ccc(N2CCC(O)CC2)nc1Nc1ccc(N2CCCC(CO)C2)c(F)c1 (stereo not drawn) [Compound 279, 2-{[3-fluoro-4-(3-hydroxymethylpiperidino)]phenylamino}-6-(4-hydroxypiperidino)-3-nitropyridine] | 102
CC1=NCCN1c1ccc([N+](=O)[O-])c(Nc2ccc(N3CCCC(CO)C3)c(F)c2)n1 (stereo not drawn) [Compound 280, 2-{[3-fluoro-4-(3-hydroxymethylpiperidino)]phenylamino}-6-[(2-methyl-4,5-dihydro)imidazol-1-yl]-3-nitropyridine] | 103
O=[N+]([O-])c1ccc(N2CCNCC2)nc1Nc1ccc(N2CCCC(CO)C2)c(F)c1 (stereo not drawn) [Compound 281, 2-{[3-fluoro-4-(3-hydroxymethylpiperidino)]phenylamino}-6-(piperazin-1-yl)-3-nitropyridine] | 107

SMILES | Cell viability (%) Calvarial cell [%]
CN1CCN(c2ccc([N+](=O)[O-])c(Nc3ccc(N4CCCC(CO)C4)c(F)c3)n2)CC1 (stereo not drawn) [Compound 282, 2-{[3-fluoro-4-(3-hydroxymethylpiperidino)]phenylamino}-6-(4-methylpiperazin-1-yl)-3-nitropyridine] | 107
O=[N+]([O-])c1ccc(N2CCOCC2)nc1Nc1ccc(N2CCCC(CO)C2)c(F)c1 (stereo not drawn) [Compound 283, 2-{[3-fluoro-4-(3-hydroxymethylpiperidino)]phenylamino}-6-morpholino-3-nitropyridine] | 103
NC1CCN(c2ccc([N+](=O)[O-])c(Nc3ccc(N4CCCC(CO)C4)c(F)c3)n2)CC1 (stereo not drawn) [Compound 284, 2-{[3-fluoro-4-(3-hydroxymethylpiperidino)]phenylamino}-6-(4-aminopiperidino)-3-nitropyridine] | 100
O=[N+]([O-])c1ccc(NCc2cccnc2)nc1Nc1ccc(N2CCCC(CO)C2)c(F)c1 (stereo not drawn) [Compound 285, 2-{[3-fluoro-4-(3-hydroxymethylpiperidino)]phenylamino}-6-[(3-pyridyl)methylamino]-3-nitropyridine] | 106
O=[N+]([O-])c1ccc(NCc2ccncc2)nc1Nc1ccc(N2CCCC(CO)C2)c(F)c1 (stereo not drawn) [Compound 286, 2-{[3-fluoro-4-(3-hydroxymethylpiperidino)]phenylamino}-6-[(4-pyridyl)methylamino]-3-nitropyridine] | 123
O=[N+]([O-])c1ccc(NCCc2ccccn2)nc1Nc1ccc(N2CCCC(CO)C2)c(F)c1 (stereo not drawn) [Compound 287, 2-{[3-fluoro-4-(3-hydroxymethylpiperidino)]phenylamino}-6-[2-(2-pyridyl)ethylamino]-3-nitropyridine] | 103
O=[N+]([O-])c1ccc(NC2CC2)nc1Nc1ccc(N2CCCC(CO)C2)c(F)c1 (stereo not drawn) [Compound 288, 2-{[3-fluoro-4-(3-hydroxymethylpiperidino)]phenylamino}-6-(cyclopropylamino)-3-nitropyridine] | 103
CNc1ccc([N+](=O)[O-])c(Nc2ccc(N3CCC(C(N)=O)CC3)c(F)c2)n1 [Compound 289, 2-{[3-fluoro-4-(4-carbamoylpiperidino)]phenylamino}-6-(methylamino)-3-nitropyridine] | 115
CC(C)Nc1ccc([N+](=O)[O-])c(Nc2ccc(N3CCC(C(N)=O)CC3)c(F)c2)n1 [Compound 290, 2-{[3-fluoro-4-(4-carbamoylpiperidino)]phenylamino}-6-(isopropylamino)-3-nitropyridine] | 119
CC(C)CNc1ccc([N+](=O)[O-])c(Nc2ccc(N3CCC(C(N)=O)CC3)c(F)c2)n1 [Compound 291, 2-{[3-fluoro-4-(4-carbamoylpiperidino)]phenylamino}-6-(isobutylamino)-3-nitropyridine] | 87
CC(C)(C)Nc1ccc([N+](=O)[O-])c(Nc2ccc(N3CCC(C(N)=O)CC3)c(F)c2)n1 [Compound 292, 2-{[3-fluoro-4-(4-carbamoylpiperidino)]phenylamino}-6-(t-butylamino)-3-nitropyridine] | 102
NC(=O)C1CCN(c2ccc(Nc3nc(N4CCC(O)CC4)ccc3[N+](=O)[O-])cc2F)CC1 [Compound 293, 2-{[3-fluoro-4-(4-carbamoylpiperidino)]phenylamino}-6-(4-hydroxypiperidino)-3-nitropyridine] | 104
NC(=O)C1CCN(c2ccc(Nc3nc(N4CCNCC4)ccc3[N+](=O)[O-])cc2F)CC1 [Compound 294, 2-{[3-fluoro-4-(4-carbamoylpiperidino)]phenylamino}-6-(piperazin-1-yl)-3-nitropyridine] | 95
CN1CCN(c2ccc([N+](=O)[O-])c(Nc3ccc(N4CCC(C(N)=O)CC4)c(F)c3)n2)CC1 [Compound 295, 2-{[3-fluoro-4-(4-carbamoylpiperidino)]phenylamino}-6-(4-methylpiperazin-1-yl)-3-nitropyridine] | 106
NC(=O)C1CCN(c2ccc(Nc3nc(N4CCOCC4)ccc3[N+](=O)[O-])cc2F)CC1 [Compound 296, 2-{[3-fluoro-4-(4-carbamoylpiperidino)]phenylamino}-6-morpholino-3-nitropyridine] | 97
NC(=O)C1CCN(c2ccc(Nc3nc(N4CCC(N)CC4)ccc3[N+](=O)[O-])cc2F)CC1 [Compound 297, 2-{[3-fluoro-4-(4-carbamoylpiperidino)]phenylamino}-6-(4-aminopiperidino)-3-nitropyridine] | 107
NC(=O)C1CCN(c2ccc(Nc3nc(NCc4ccncc4)ccc3[N+](=O)[O-])cc2F)CC1 [Compound 298, 2-{[3-fluoro-4-(4-carbamoylpiperidino)]phenylamino}-6-[(4-pyridyl)methylamino]-3-nitropyridine] | 108
NC(=O)C1CCN(c2ccc(Nc3nc(NCCN4CCOCC4)ccc3[N+](=O)[O-])cc2F)CC1 [Compound 300, 2-{[3-fluoro-4-(4-carbamoylpiperidino)]phenylamino}-6-[2-(morpholin-1-yl)ethylamino]-3-nitropyridine] | 118
